According to EP0480714A2, “HIV protease inhibitors having symmetrical structure” (MERCK & CO. INC., priority 1990, dated 1992):
pIC50: −log10 of the molar value.

Target: HIV protease (Human immunodeficiency virus type 1 group M subtype B, UniProt P04585)
Experiment: Assay for inhibition of microbial expressed viral protease (peptide substrate cleavage, HPLC readout)
Type: biochemical
Conditions: protease expressed in Eschericia coli; peptide substrate Val-Ser-Gln-Asn-(betanapthyl)Ala-Pro-Ile-Val 0.5 mg/mL; 50 mM Na acetate, pH 5.5, 30°C, 1 hour; read-out: IC₅₀
Description: Assay for Inhibition of Microbial Expressed Viral Protease
Inhibition studies of the reaction of the protease expressed in Eschericia coli with a peptide substrate [Val-Ser-Gln-Asn-(betanapthyl)Ala-Pro-Ile-Val, 0.5 mg/mL at the time the reaction is initiated] were in 50 mM Na acetate, pH 5.5, at 30°C for 1 hour. Various concentrations of inhibitor in 1.0 ul DMAO were added to 25 ul of the peptide solution in water. The reaction is initiated by the addition of 15 ul of 0.33 nM protease (0.11 ng) in a solution of 0.133 M Na acetate pH 5.5 and 0.26% bovine serum albumin. The reaction was quenched with 160 ul of 5% phosphoric acid. Products of the reaction were separated by HPLC (VYDAC wide pore 5 cm C-18 reverse phase, acetonitrile gradient, 0.1% phosphoric acid). The extent of inhibition of the reaction was determined from the peak heights of the products.

O=C(N[C@H]1c2ccccc2C[C@H]1O)[C@H](Cc1ccccc1)CC(O)C[C@@H](Cc1ccccc1)C(=O)N[C@H]1c2ccccc2C[C@H]1O [Example 1, N,N-bis-(2(R)-hydroxy-1(S)-indanyl)-2, 6(R,R)diphenylmethyl-4-hydroxy-1,7-heptanediamide]
pIC50: ~9.15
